Data reported in US20090247559A1 (Exelixis, Inc., priority 2007, published 2009).
Where two headings read alike, the source gives them in different places.

Legend:
CK2 = CK2 (Homo sapiens, UniProt P68400); experiment: CK2 inhibition, biochemical chemiluminescence holoenzyme assay (Kinase Glo, IC50 determination)
Outline: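 Holoenzyme CK2 assay; compounds pre-incubated with substrate and enzyme, then reacted 150 min at 24-27° C. Remaining ATP measured as luminescence with Kinase Glo, and IC50 derived from the signal.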

[1] = biological target: PIM (PIM-1, PIM-2, and/or PIM-3); experiment: PIM-1, PIM-2 and PIM-3 inhibition, biochemical chemiluminescence assays (Kinase Glo, IC50 determination); settings: Table 1 activity class; PIM refers to PIM-1, PIM-2, and/or PIM-3; read-out: PIM IC50 (Activity B)
CDC7 = CDC7 (Homo sapiens, UniProt O00311); experiment: CDC7 inhibition, biochemical chemiluminescence assay (Kinase Glo, IC50 determination)
Outline: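 CDC7 enzyme preincubated with compound 10 min at ambient temperature, then ATP mix in Tris Base added; reaction 90 min at 24-27 °C. Remaining ATP quantified by Kinase Glo luminescence to give IC50.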

[2] = Table 1 activity class, symbol given only if active, read-out: CK2 IC50 (Activity C)
[3] = Table 1 activity class, symbol given only if active, read-out: CDC7 IC50 (Activity A)
[4] = compounds in Table 1, read-out: CDC7 IC50 value
[5] = CDC7 IC50 (Activity A), Table 1 activity class, symbol given only if active

Chain of CK2 (P68400 whole entry): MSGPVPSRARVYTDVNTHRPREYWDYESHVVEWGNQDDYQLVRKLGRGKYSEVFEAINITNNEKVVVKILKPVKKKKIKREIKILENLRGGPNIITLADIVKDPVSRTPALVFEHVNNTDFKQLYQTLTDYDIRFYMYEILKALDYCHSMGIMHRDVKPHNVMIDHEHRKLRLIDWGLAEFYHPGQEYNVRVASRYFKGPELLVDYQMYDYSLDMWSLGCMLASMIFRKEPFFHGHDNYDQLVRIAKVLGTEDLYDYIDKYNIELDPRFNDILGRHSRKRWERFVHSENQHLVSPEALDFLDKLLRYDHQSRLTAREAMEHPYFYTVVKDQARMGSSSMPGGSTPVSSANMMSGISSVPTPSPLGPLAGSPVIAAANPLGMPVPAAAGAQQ
Chain of CK2 (P67870 whole entry partner): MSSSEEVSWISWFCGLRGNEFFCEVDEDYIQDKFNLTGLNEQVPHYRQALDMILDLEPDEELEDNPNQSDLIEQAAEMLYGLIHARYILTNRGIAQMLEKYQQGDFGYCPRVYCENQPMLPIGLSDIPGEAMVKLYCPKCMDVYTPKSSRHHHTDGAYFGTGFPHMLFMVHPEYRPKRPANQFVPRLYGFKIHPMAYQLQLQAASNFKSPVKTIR
Chain of CDC7 (O00311 whole entry): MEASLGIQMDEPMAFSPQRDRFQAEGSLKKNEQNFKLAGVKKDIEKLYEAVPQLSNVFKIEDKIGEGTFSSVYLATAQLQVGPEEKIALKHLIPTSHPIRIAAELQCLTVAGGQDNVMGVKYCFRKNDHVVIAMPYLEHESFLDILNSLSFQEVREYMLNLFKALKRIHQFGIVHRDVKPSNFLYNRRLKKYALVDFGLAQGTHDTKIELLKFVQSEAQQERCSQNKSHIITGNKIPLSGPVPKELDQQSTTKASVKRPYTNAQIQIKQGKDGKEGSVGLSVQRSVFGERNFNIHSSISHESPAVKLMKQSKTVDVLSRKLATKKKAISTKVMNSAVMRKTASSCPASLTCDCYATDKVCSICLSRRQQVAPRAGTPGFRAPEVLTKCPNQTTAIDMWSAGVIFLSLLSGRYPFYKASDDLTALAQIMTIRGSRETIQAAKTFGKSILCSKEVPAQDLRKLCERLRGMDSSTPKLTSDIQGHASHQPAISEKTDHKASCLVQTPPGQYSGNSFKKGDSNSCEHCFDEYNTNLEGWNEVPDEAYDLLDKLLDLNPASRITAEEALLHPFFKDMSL
Chain of CDC7 (Q9UBU7 whole entry partner): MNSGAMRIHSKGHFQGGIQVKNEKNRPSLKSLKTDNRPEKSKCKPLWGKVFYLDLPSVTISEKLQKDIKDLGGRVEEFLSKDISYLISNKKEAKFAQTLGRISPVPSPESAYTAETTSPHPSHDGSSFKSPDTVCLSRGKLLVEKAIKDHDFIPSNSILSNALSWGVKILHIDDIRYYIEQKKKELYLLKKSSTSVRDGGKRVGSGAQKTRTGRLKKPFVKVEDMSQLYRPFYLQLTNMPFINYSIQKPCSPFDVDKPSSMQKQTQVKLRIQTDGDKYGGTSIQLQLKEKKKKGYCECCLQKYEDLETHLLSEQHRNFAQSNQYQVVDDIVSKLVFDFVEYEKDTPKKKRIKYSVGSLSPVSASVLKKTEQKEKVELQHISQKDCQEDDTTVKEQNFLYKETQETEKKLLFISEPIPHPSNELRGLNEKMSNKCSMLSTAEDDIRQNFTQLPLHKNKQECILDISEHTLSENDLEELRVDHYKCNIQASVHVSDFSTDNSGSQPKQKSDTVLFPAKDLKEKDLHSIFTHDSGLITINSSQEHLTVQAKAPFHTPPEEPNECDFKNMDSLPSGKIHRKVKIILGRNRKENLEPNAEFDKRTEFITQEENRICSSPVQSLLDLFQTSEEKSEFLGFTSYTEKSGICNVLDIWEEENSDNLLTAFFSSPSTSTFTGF

Structure (SMILES)	IC50 (CK2; [2]) [µM]	IC50 [1] [µM]	IC50 (CDC7; [3]) [µM]	IC50 (CDC7; [4]) [µM]	IC50 (CDC7; [5]) [µM]	IC50 (CDC7; CDC7 IC50 value, compounds in Table 1) [µM]	IC50 (CK2) [µM]
O=c1[nH]c(C2CCCO2)nc2c1oc1ccc(Br)cc12 (stereo not shown) [Compound 499, 8-bromo-2-(tetrahydrofuran-2-yl)[1]benzofuro[3,2-d]pyrimidin-4(3H)-one]	< 10	< 10	< 10	–	–	–	–
O=c1[nH]c(CN2CCC(O)CC2)nc2c1oc1ccc(Br)cc12 [Compound 242, 8-bromo-2-[(4-hydroxypiperidin-1-yl)methyl][1]benzofuro[3,2-d]pyrimidin-4(3H)-one]	< 10	< 10	< 10	< 0.1	–	–	–
O=C(Nc1ccc(-c2nc3c(oc4ccc(Br)cc43)c(=O)[nH]2)c(Cl)c1)c1ncco1 [Compound 373, N-[4-(8-bromo-4-oxo-3,4-dihydro[1]benzofuro[3,2-d]pyrimidin-2-yl)-3-chlorophenyl]-1,3-oxazole-2-carboxamide]	< 10	< 10	< 10	–	–	–	–
O=C(Nc1ccc(-c2nc3c(oc4ccc(Br)cc43)c(=O)[nH]2)c(Cl)c1)c1ccco1 [Compound 321, N-[4-(8-bromo-4-oxo-3,4-dihydro[1]benzofuro[3,2-d]pyrimidin-2-yl)-3-chlorophenyl]furan-2-carboxamide]	< 10	< 10	< 10	–	–	–	–
O=C(Nc1ccc(-c2nc3c(oc4ccc(Br)cc43)c(=O)[nH]2)c(Cl)c1)c1ccon1 [Compound 363, N-[4-(8-bromo-4-oxo-3,4-dihydro[1]benzofuro[3,2-d]pyrimidin-2-yl)-3-chlorophenyl]isoxazole-3-carboxamide]	< 10	< 10	< 10	–	–	–	–
O=c1[nH]c(CN2CCN(CCn3ccnc3)CC2)nc2c1oc1ccc(Br)cc12 [Compound 113, 8-bromo-2-({4-[2-(1H-imidazol-1-yl)ethyl]piperazin-1-yl}methyl)[1]benzofuro[3,2-d]pyrimidin-4(3H)-one]	< 10	< 10	< 10	–	–	–	–
O=c1[nH]c(CN2CC3CCC2[C@H]3O)nc2c1oc1ccc(Br)cc12 (stereo partly drawn) [Compound 413, 8-bromo-2-{[(7S)-7-hydroxy-2-azabicyclo[2.2.1]hept-2-yl]methyl}[1]benzofuro[3,2-d]pyrimidin-4(3H)-one]	< 10	< 10	< 10	< 0.1	–	–	–
O=c1[nH]c(-c2ccncc2Cl)nc2c1oc1ccc(Br)cc12 [Compound 112, 8-bromo-2-(3-chloropyridin-4-yl)[1]benzofuro[3,2-d]pyrimidin-4(3H)-one]	< 10	< 10	< 10	–	–	–	–
O=c1[nH]c(CN2CC3CCC2C3)nc2c1oc1ccc(Br)cc12 (stereo not shown) [Compound 520, 2-(2-azabicyclo[2.2.1]hept-2-ylmethyl)-8-bromo[1]benzofuro[3,2-d]pyrimidin-4(3H)-one]	< 10	< 10	–	–	< 10	< 0.1	–
O=c1[nH]c(-c2cccc3c2CCNC3)nc2c1oc1ccc(Br)cc12 [Compound 375, 8-Bromo-2-(1,2,3,4-tetrahydroisoquinolin-5-yl)[1]benzofuro[3,2-d]pyrimidin-4(3H)-one]	< 10	< 10	< 10	< 0.1	–	–	–
Nc1n[nH]c2ccc(C(=O)Nc3ccc(-c4nc5c(oc6ccc(Br)cc65)c(=O)[nH]4)c(Cl)c3)cc12 [Compound 393, ′3-amino-N-[4-(8-bromo-4-oxo-3,4-dihydro[1]benzofuro[3,2-d]pyrimidin-2-yl)-3-chlorophenyl]-1H-indazole-5-carboxamide]	< 10	< 10	< 10	–	–	–	–
O=c1[nH]c(CN2C3CCC2CC(O)C3)nc2c1oc1ccc(Br)cc12 (stereo not shown) [Compound 398, 8-bromo-2-[(3-hydroxy-8-azabicyclo[3.2.1]oct-8-yl)methyl][1]benzofuro[3,2-d]pyrimidin-4(3H)-one]	–	< 10	–	–	< 10	–	< 10
O=c1[nH]c([C@@H]2CCCN2)nc2c1oc1ccccc12 [Compound 506, 2-[(2S)-pyrrolidin-2-yl][1]benzofuro[3,2-d]pyrimidin-4(3H)-one]	< 10	< 10	< 10	–	–	–	–
O=c1[nH]c([C@@H]2CCCN2)nc2c1oc1ccc(Br)cc12 [Compound 470, 8-bromo-2-[(2S)-pyrrolidin-2-yl][1]benzofuro[3,2-d]pyrimidin-4(3H)-one]	< 10	< 10	< 10	< 0.1	–	–	–
CC(C)(CN1CCOCC1)NCc1nc2c(oc3ccc(Br)cc32)c(=O)[nH]1 [Compound 130, 8-bromo-2-{[(1,1-dimethyl-2-morpholin-4-ylethyl)amino]methyl}[1]benzofuro[3,2-d]pyrimidin-4(3H)-one]	< 10	< 10	< 10	–	–	–	–
CC(C)(C)NCc1nc2c(oc3ccc(Br)cc32)c(=O)[nH]1 [Compound 503, 8-bromo-2-{[(1,1-dimethylethyl)amino]methyl}[1]benzofuro[3,2-d]pyrimidin-4(3H)-one]	< 10	< 10	< 10	< 0.1	–	–	–
NC1CCC(c2nc3c(oc4ccc(Br)cc43)c(=O)[nH]2)CC1 (stereo not shown) [Compound 223, 2-(4-Aminocyclohexyl)-8-bromo[1]benzofuro[3,2-d]pyrimidin-4(3H)-one]	< 10	< 10	< 10	< 0.1	–	–	–
O=c1[nH]c(N2CCOCC2)nc2c1oc1ccc(Br)cc12 [Compound 147, 8-bromo-2-morpholin-4-yl[1]benzofuro[3,2-d]pyrimidin-4(3H)-one]	< 10	< 10	< 10	< 0.1	–	–	–
CN(C)Cc1ccc(-c2nc3c(oc4ccc(Br)cc43)c(=O)[nH]2)c(Cl)c1 [Compound 381, 8-bromo-2-{2-chloro-4-[(dimethylamino)methyl]phenyl}[1]benzofuro[3,2-d]pyrimidin-4(3H)-one]	< 10	< 10	< 10	–	–	–	–
Cc1cc2c(cc1[N+](=O)O)oc1c(=O)[nH]c(CN3CC[C@H](O)C3)nc12 [Compound 433, hydroxy(2-{[(3S)-3-hydroxypyrrolidin-1-yl]methyl}-8-methyl-4-oxo-3,4-dihydro[1]benzofuro[3,2-d]pyrimidin-7-yl)oxoammonium]	< 10	< 10	< 10	–	–	–	–

The next lines start with results.

IC50 (CK2; [2]) [µM]	IC50 [1] [µM]	IC50 (CDC7; [3]) [µM]	IC50 (CDC7; [4]) [µM]	Structure (SMILES)	IC50 (CDC7; [5]) [µM]	IC50 (CDC7; CDC7 IC50 value, compounds in Table 1) [µM]	IC50 (CK2) [µM]
< 10	< 10	< 10	–	O=C(Nc1ccc(-c2nc3c(oc4ccc(Br)cc43)c(=O)[nH]2)c(Cl)c1)c1cnco1 [Compound 374, N-[4-(8-bromo-4-oxo-3,4-dihydro[1]benzofuro[3,2-d]pyrimidin-2-yl)-3-chlorophenyl]-1,3-oxazole-5-carboxamide]	–	–	–
< 10	< 10	< 10	–	CN(C)CC(=O)Nc1ccc(-c2nc3c(oc4ccc(Br)cc43)c(=O)[nH]2)c(Cl)c1 [Compound 127, N-[4-(8-bromo-4-oxo-3,4-dihydro[1]benzofuro[3,2-d]pyrimidin-2-yl)-3-chlorophenyl]-N′2′,N′2′-dimethylglycinamide]	–	–	–
< 10	< 10	< 10	< 0.1	CN1CCC(c2nc3c(oc4ccc(Br)cc43)c(=O)[nH]2)C1 (stereo not shown) [Compound 289, 8-bromo-2-(1-methylpyrrolidin-3-yl)[1]benzofuro[3,2-d]pyrimidin-4(3H)-one]	–	–	–
< 10	< 10	< 10	–	CN(C)C(=O)CN1CCN(Cc2nc3c(oc4ccc(Br)cc43)c(=O)[nH]2)CC1 [Compound 25, 2-{4-[(8-bromo-4-oxo-3,4-dihydro[1]benzofuro[3,2-d]pyrimidin-2-yl)methyl]piperazin-1-yl}-N,N-dimethylacetamide]	–	–	–
< 10	< 10	< 10	< 0.1	O=c1[nH]c(CNC2CCCC2)nc2c1oc1ccc(Br)cc12 [Compound 199, 8-bromo-2-[(cyclopentylamino)methyl][1]benzofuro[3,2-d]pyrimidin-4(3H)-one]	–	–	–
< 10	< 10	< 10	< 0.1	O=c1[nH]c([C@@H]2C[C@@H](O)CN2)nc2c1oc1ccc(Br)cc12 [Compound 488, 8-bromo-2-[(2S,4R)-4-hydroxypyrrolidin-2-yl][1]benzofuro[3,2-d]pyrimidin-4(3H)-one]	–	–	–
< 10	< 10	< 10	< 0.1	COCCNCc1nc2c(oc3ccc(Br)cc32)c(=O)[nH]1 [Compound 277, 8-bromo-2-({[2-(methyloxy)ethyl]amino}methyl)[1]benzofuro[3,2-d]pyrimidin-4(3H)-one]	–	–	–
< 10	< 10	< 10	–	O=C(Cc1c[nH]cn1)Nc1ccc(-c2nc3c(oc4ccc(Br)cc43)c(=O)[nH]2)c(Cl)c1 [Compound 182, N-[4-(8-bromo-4-oxo-3,4-dihydro[1]benzofuro[3,2-d]pyrimidin-2-yl)-3-chlorophenyl]-2-(1H-imidazol-4-yl)acetamide]	–	–	–
< 10	< 10	< 10	< 0.1	N[C@@H](c1ccccc1)c1nc2c(oc3ccc(Br)cc32)c(=O)[nH]1 [Compound 489, 2-[(S)-amino(phenyl)methyl]-8-bromo[1]benzofuro[3,2-d]pyrimidin-4(3H)-one]	–	–	–
